In the experiment the target is T1, RSK2 (Homo sapiens, UniProt P51812).
T1 construct: gene RPS6KA3
Briefly: FRET kinase assay (Thermo Fisher LanthaScreen / Z'-LYTE). In kind it is biochemical.

Molecules are shown by their SMILES.

T1 sequence (P51812 whole entry): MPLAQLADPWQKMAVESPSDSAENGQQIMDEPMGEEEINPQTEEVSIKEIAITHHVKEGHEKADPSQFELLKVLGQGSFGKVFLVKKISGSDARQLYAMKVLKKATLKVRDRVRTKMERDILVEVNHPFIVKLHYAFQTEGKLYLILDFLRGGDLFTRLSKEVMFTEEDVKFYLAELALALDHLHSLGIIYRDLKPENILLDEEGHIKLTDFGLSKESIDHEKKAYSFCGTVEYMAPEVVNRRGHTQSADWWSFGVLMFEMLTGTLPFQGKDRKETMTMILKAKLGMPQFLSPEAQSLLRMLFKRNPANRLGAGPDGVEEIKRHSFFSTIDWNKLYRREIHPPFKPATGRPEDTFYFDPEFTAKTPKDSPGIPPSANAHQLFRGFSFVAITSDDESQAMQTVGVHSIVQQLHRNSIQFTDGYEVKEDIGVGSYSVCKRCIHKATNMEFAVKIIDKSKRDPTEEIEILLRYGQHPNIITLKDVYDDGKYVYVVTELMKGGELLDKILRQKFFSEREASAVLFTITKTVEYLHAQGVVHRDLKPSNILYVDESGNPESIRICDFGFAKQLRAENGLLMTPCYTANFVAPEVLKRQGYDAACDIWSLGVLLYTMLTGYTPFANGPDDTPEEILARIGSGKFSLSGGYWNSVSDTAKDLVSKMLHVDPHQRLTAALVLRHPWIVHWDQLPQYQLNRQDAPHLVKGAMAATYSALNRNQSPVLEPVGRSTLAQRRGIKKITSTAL

With `Cc1ccc2[nH]c(=O)c(-c3cnc(=O)[nH]n3)c(O)c2c1` [NSYSU-115], the midpoint of inhibition, the IC50, lay at 45.5 nM. This lies in the double-digit nanomolar range.

The values above are taken from article PMC12326382, “Discovery of a novel RSK2 inhibitor for the treatment of metastatic pancreatic cancer” (Journal of Enzyme Inhibition and Medicinal Chemistry, 2025).
